What was measured:
STAT3βtr = biological target: T1, STAT3βtr (Homo sapiens, UniProt P40763); assay: STAT3 alkylation study, targeted LC-MS/MS (MRM, QTrap 5500) of tryptic digests; type: biochemical; settings: for number of STAT3βtr peptides alkylated: natively folded STAT3βtr, conditions optimal for alkylation, LC-MS/MS of tryptic digest
T1 construct: STAT3 (127-722) cDNA was cloned into a pET15b vector; made in house; host or cells: E. coli BL21 (DE), pET15b
Text: To examine if this was a possibility, recombinant STAT3 was generated post-translationally unmodified in bacteria using a cDNA construct in which the domain containing the N-terminal oligomerization domain was deleted (STAT3βtr); this domain is not necessary for native folding of the core domains of STAT3 (CCD, DBD, linker domain, and SH2 domain) and its removal markedly improves recombinant STAT3 protein solubility. STAT3βtr contains 11 Cys residues. To determine how many of these Cys residues are available to be alkylated when soluble protein is natively folded, we incubated STAT3βtr with two protein alkylating agents, iodoacetamide and N-ethylmaleimide (NEM) under conditions optimal for alkylation (FIG. 11A-11B). […] The identity of the peptides were confirmed by performing full MS/MS spectra on the detected transitions. […] Five of the peptides contained a single alkylated Cys, while one of the peptides contained two alkylated Cys residues.
Expression and purification of recombinant STAT3. STAT3 (127-722) cDNA was cloned into a pET15b vector and transformed in BL21 (DE) (Life Technologies, Inc. Woburn, MA) Expression of the recombinant protein was inducing by 0.5 mM IPTG, at 20° C. for 5 hr. The recombinant STAT3 protein was purified by ammonium sulfate precipitation followed by an ion exchange step with HiTrap Q columns (GE Healthcare Bio-Sciences, Uppsala Sweden) and size exclusion chromatography to achieve purity of over 98%.
(§1) STAT3 alkylation studies. Purified recombinant core fragment of STAT3β protein in ammonium bicarbonate buffer (10 μM) was mixed with each compound at a final concentration of 100 μM. The protein mixture was then incubated at 37° C. overnight. Samples were reduced with 5 mM DTT at 37 °C for one hour and further alkylated with iodoacetamide (15 mM) for 30 minutes at RT in the dark, followed by digestion with trypsin gold in a dry incubator at 37° C. overnight. Formic acid was added the next day to 5% and each protein sample was diluted in 5 mM ammonium acetate containing 0.5% formic acid immediately prior to analysis by Targeted Mass Spectrometry Multiple Reaction Monitoring (MRM).
LC-MS/MS. A QTRAP 5500 Sciex hybrid quadrupole-linear ion trap system with a TurboIonSpray ion source in positive mode and equipped with a Sciex LC Exion liquid chromatography system was used to analyze tryptic digests of STAT3 protein samples treated with STAT3 inhibitors. Fractionation of the samples was done using a Waters Symmetry C18 column (100 Å, 3.5 μm, 4.6 mm×150 mm) and a 30 min linear gradient of acetonitrile with 0.1% formic acid at a flow rate of 300 uL/min. A transition list of cysteine-containing peptides with expected drug-cysteine adducts were generated in Skyline software and exported to the QTRAP mass spectrometer to developed acquisition methods. Resultant raw data files generated in the QTRAP were imported back into Skyline for analysis and additional processing.

DU-145 cells = assay: Seahorse XF Cell Mito Stress Test, oxygen consumption rate (OCR); type: cell-based, human
Procedure: FIGS. 1A-1C show the effects of STAT3 inhibitors on mitochondrial function. DU-145 cells were treated with the indicated STAT3 inhibitors at 30 μM for 2 Hrs.
DU-145 cells were treated with STAT3 inhibitors at 10-30 μM for 2 Hrs. Data are representative of 4 or more independent experiments.
ATP production, maximal respiration, proton leak, and spare respiratory capacity. […] Similarly.
Mitochondrial assays. DU-145 cells (2.5×10^4) were seeded per well in a XF24 plate and incubated at 37° C./5% CO2 in complete RPMI medium. After 12 Hrs complete medium was replaced with nutrient depleted four-day culture media: conditioned media (CM) and incubated for 4 Hrs. Cells were then treated for another 2 Hrs with STAT3 inhibitors prior to analysis using a Seahorse XF24 Analyzer. The Oxygen Consumption Rate (OCR) was measured in DMEM XF base medium containing 10 mM glucose and 2 mM glutamine and 1 mM pyruvate, before and after the sequential injection of oligomycin, FCCP and rotenone/antimycin A to final concentrations of 1 μM, 1 μM and 0.5 μM respectively. Basal and maximal respiration values were estimate by subtraction of OCR value after treatment of cells with rotenone and antimycin A (which reflects non-mitochondrial respiration) from OCR values in cells treated with oligomycin and FCCP respectively.

male C57BL/6 mice [1] = assay: Cisplatin model of chemotherapy-induced peripheral neuropathy (CIPN), von Frey mechanical allodynia; type: in vivo, mouse; settings: two cycles of 5 daily doses of 2.3 mg/kg followed by 5 days rest
Procedure: Data were analyzed by two-way ANOVA repeated measures. Time: P<0.001; Group: P<0.001; Interaction P<0.001. **P<0.01 Tukey multiple comparison test. Data are from a representative experiment out of two with similar results.
Male C57/B16 mice (n=4 per group) were treated with cisplatin (two rounds of 5 daily doses of 2.3 mg/kg i.p. followed by 5 days of rest). […] Data were analyzed by two-way ANOVA repeated measures. Time: P<0.001; Group: P<0.001; Interaction P<0.01. **P<0.01 Tukey multiple comparison test.
Peripheral neuropathy has been observed with several small-molecule STAT3 inhibitors in clinical-stage development (Bendell et al., 2014; Genini et al., 2017; Ogura et al., 2015). […] This model was selected because it was shown previously that it is mediated by mitochondrial damage in the peripheral nervous system (Krukowski et al., 2017; Maj, Ma, Krukowski, Kavelaars & Heijnen, 2017). […] (FIG. 12).
Pain measurements and chemotherapy-induced peripheral neuropathy (CIPN).

DRG transcriptome = assay: RNA-seq and IPA analysis of dorsal root ganglia of cisplatin-treated mice; type: in vivo, mouse; settings: cisplatin vs. PBS
Text: Expression of 1,973 genes was changed in response to cisplatin when compared to the PBS mice (PBS vs. Cis; n=3 male mice per group). […] A cutoff of (−0.2<log 2 Fold Change <0.2) and p=0.1 was used for the analysis. […] Gray indicates effect cannot be predicted.
The mechanistic network of four regulators identified STAT3 as an intermediate regulator. […] For example, for the TP53 network, 14 regulators were part of the mechanistic network which together influence expression of 481 genes and out of these 481 genes, 64 target genes are controlled by STAT3.
RNA-seq and transcriptome analysis of dorsal root ganglion (DRG). […] Total RNA was isolated with the RNeasy MinElute Cleanup Kit (Qiagen, Hilden, Germany). Libraries were prepared with the Stranded mRNA-Seq kit (Kapa Biosystems, Wilmington, MA) following the manufacturer's guidelines. Stranded-mRNA seq was performed with a HiSeq4000 Sequencer (Illumina, San Diego, CA) with 76nt PE format by the RNA Sequencing Core at MD Anderson Cancer Center. Data analysis was performed as previously described (Chiu et al., 2018; Ma et al., 2019). Briefly, expression data of three samples per group were analyzed in R using bioconductor packages. STAR was used for alignment of paired-end reads to the mm10 version of the mouse reference genome; feature Counts was used to assign mapped sequence reads to genomic features, and DESeq2 was used to identify differentially expressed genes (padj<0.05). Quality check of raw and aligned reads was performed with FastQC and Qualimap. Next, we used Ingenuity Pathway Analysis (IPA; Qiagen Inc., https://www.qiagenbioinformatics.com/products/ingenuity-pathway-analysis/) for analysis of the canonical pathways implicated by cisplatin-induced transcriptome changes in DRG.

male C57BL/6 mice [2] = settings: Krukowski et al., 2017; cited from earlier work
STAT3 = biological target: T2, STAT3 (Homo sapiens, UniProt P40763); assay: STAT3 alkylation study, high resolution LC-MS/MS for unknown chemical adducts; type: biochemical; settings: vs. STAT3 incubated with DMSO
T2 construct: STAT3 (127-722) cDNA was cloned into a pET15b vector; made in house; host or cells: E. coli BL21 (DE), pET15b
Procedure: FIGS. 11A-11C show alkylation of STAT3βtr by iodoacetamide and NEM. […] The dotted line indicates the cutoff for a significant Z-score.
as §1, with “Formic acid was added the next day to 5% and each protein sample was diluted in 5 mM ammonium acetate containing 0.5% formic acid immediately prior to analysis by Targeted Mass Spectrometry Multiple Reaction Monitoring (MRM).” left out
High resolution LC/MS. An aliquot of the tryptic digests of STAT3 proteins treated with DMSO (control) and those treated with Stattic and TTI101 were analyzed by LC-MS/MS on an Ultimate 3000 RSLC-Nano chromatograph interfaced to an Orbitrap Fusion high-resolution mass spectrometer (Thermo Scientific, Waltham MA). All MS/MS data were analyzed using Sequest-HT (Thermo Scientific). […] To access for potential unknown modifications, the data was analyzed in MaxQuant using the dependent peptide search option (Tyanova, Temu & Cox, 2016). All peptides output list was analyzed by comparing Stattic, TTI101 and TTI101ox with DMSO treated samples as described in (Antinori, Michelot, Lescuyer, Müller & Acosta-Martin, 2019).

[3] = Glutathione reaction study (UV-HPLC stability with GSH); type: physicochemical
Procedure: The AUC of each compound measured at the times indicated by UV-HPLC and expressed as percent of the starting AUC of the peaks. Data are representative of four independently performed experiments.
Each reaction mixture was sampled at time 0 and every 5 minutes for 50 minutes; all samples were analyzed by HPLC. The amount of unreacted inhibitor was determined by measuring the area under the curve (AUC) and plotting this value as a percentage of the starting AUC as a function of time (FIG. 3). […] In contrast, there was no loss of TTI-101 in the presence of GSH.
Glutathione reaction studies. STAT3 inhibitors (10 ul of 10 mM stock in DMSO) were spiked into reaction buffer [50 mM HEPES pH7.5 containing 10 mM reduced glutathione (GSH)] the samples were mixed thoroughly and placed in an autosampler set at 20° C. The reactions were monitored by high performance liquid chromatography (HPLC) using an Exion LC Sciex unit equipped with a UV detector. The stationary phase used was a C18 Synergi™ 4 μm Fusion-RP 80 Å LC column (50×2 mm); the mobile phase was water (A) and acetonitrile (B). The elution process consisted of an isocratic step with 20% mobile phase B, followed by 80% B, for 2 minutes. The flow rate was maintained at 0.5 mL/min during the run. Measurements were conducted at intervals of 5 minutes for a period of 55 minutes total. The presence of the STAT3 inhibitors were quantified by calculating the area under the curves (AUCs) of the compound peaks at 260-295 nm.

T1 sequence (P40763 127-722 isoform P40763-3): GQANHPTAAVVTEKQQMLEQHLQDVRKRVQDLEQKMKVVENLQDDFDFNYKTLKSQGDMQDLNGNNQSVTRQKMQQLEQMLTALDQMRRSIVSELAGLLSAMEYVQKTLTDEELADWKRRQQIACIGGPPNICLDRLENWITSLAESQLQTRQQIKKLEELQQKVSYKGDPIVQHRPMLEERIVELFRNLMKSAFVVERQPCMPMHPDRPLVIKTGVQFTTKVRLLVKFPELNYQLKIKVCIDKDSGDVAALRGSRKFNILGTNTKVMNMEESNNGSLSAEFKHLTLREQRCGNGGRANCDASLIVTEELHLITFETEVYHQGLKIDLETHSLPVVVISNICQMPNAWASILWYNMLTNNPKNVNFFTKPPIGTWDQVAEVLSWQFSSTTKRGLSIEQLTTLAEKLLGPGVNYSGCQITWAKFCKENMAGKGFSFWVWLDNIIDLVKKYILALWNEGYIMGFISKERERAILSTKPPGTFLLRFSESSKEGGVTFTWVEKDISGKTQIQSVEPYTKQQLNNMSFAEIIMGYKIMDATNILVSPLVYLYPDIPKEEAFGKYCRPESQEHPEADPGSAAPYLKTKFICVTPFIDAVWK
T2 sequence (P40763 127-722 isoform P40763-3): as above

Compound: NC(=O)CI [iodoacetamide]
- number of STAT3βtr peptides alkylated (STAT3βtr): 6 peptides

Compound: CCN1C(=O)C=CC1=O [NEM, N-ethylmaleimide]
- number of STAT3βtr peptides alkylated (STAT3βtr): 6 peptides

Compound: C[C@H]1COC2=C1C(=O)C(=O)c1c2ccc2c1CCCC2(C)C [cryptotanshinone]
- reduction in ATP level production (DU-145 cells; 30 μM): 50%

Compound: N.N.[Cl][Pt][Cl] [cisplatin, reference compound]
- induction of mechanical allodynia (male C57BL/6 mice [1]): induces mechanical allodynia
- VEGF signaling (IPA comparison analysis) (DRG transcriptome): predicted activation of VEGF signaling
- genes down in DRG (DRG transcriptome): 675 genes
- genes up in DRG (DRG transcriptome): 1,298 genes
- genes with changed expression in DRG (DRG transcriptome): 1,973 genes
- duration of induced mechanical allodynia (male C57BL/6 mice [2]): at least 75 days

Compound: O=[N+]([O-])c1ccc2c(c1)S(=O)(=O)C=C2 [Stattic]
- adducts on Cys containing STAT3 peptides (alkylation), targeted LC-MS/MS (STAT3βtr; STAT3βtr 10 μM, compound 100 μM, 37° C. overnight): covalent modification of STAT3
- alkylated peptides, targeted and untargeted LC-MS/MS (STAT3βtr; STAT3βtr tryptic digests, Qtrap 5500 and Orbitrap, FIGS. 4A-4C (Stattic)): eight
- chemical adducts / mass shifts of STAT3 peptides, untargeted high resolution LC-MS/MS (STAT3): adducts were detected
- unreacted inhibitor level (AUC) as percent of baseline in the presence of GSH ([3]; 100 μM in 50 mM HEPES pH 7.5, 10 mM GSH, within 5 minutes): < 10%
- inhibitor level in the absence of GSH ([3]; without GSH): remaining constant
- OCR curves compared to DMSO control (DU-145 cells; 2 Hrs, 10 and 30 μM (3-fold and 10-fold TTI-101 IC50)): did not consistently alter the OCR curves

— patent US20240226041A1, “METHODS AND COMPOSITIONS FOR TREATMENT OF NEUROPATHIC PAIN USING STAT3 INHIBITORS” (priority 2021, published 2024)
